Assay results reported in article PMC4585835 (Scientific Reports, 2015).
Like-named read-outs stand apart in the source and are kept apart here. One block for each compound: values may come before it. Where a SMILES comes first, the peptide text is derived from it. Where no end group is shown, it is not given here. [ ]: non-standard residue; d: D form. The star is where a group is joined. Stearoyl = CCCCCCCCCCCCCCCCCC(=O)*

Columns and labels:
[1] = tested on: Trypsin (modified sequencing grade); experiment: trypsin (119 ng/μL) in the Tris-HCl buffer (90 mM, pH = 8.5); settings: 37 °C, up to 5 h
[2] = tested on: human thrombin; experiment: thrombin (69 NIH/mL) in Tris-HCl buffer (70 mM Tris HCl, NaCl 50 mM, pH = 8.0); settings: 37 °C, up to 5 h
[3] = biological target: T1, human thrombin (Homo sapiens, UniProt P00734); experiment: Inhibition of human thrombin-catalyzed hydrolysis of Chromozym TH; type: biochemical; settings: 25 °C, pH 7.4
T1 construct: purchased National Institute for the Control of Pharmaceutical and Biological Products (Beijing, China)
Procedure: The inhibition constant (Ki) was determined as reported previously. A 0.05 mL of peptide solution (concentration 10, 25, 50, 100, 150, 500 and 1000 nM, respectively) was added to 0.4 mL mixture of Hepes buffer (10 mM Hepes, 10 mM Tris, 0.1 M NaCl, 0.1% PEG 6000, pH 7.4) and bovine or human thrombin (0.25 NIH). The resulting solution was incubated at 25 °C for 2 min, followed by the addition of 0.05 mL Chromozym TH (concentration 25, 33, 40, 50, 100, 125, 200, 330, 500, and […], respectively). The absorbance at 405 nm was measured using a Beckman DU640 spectrometer. The inhibition constant (Ki) was determined using the following equation (Eq.1) originally developed for competitive inhibition processes[25]:
Herein, S is the initial substrate concentration; I is the inhibitor concentration; v is the initial steady-state velocity; Vmax is the limiting maximal velocity; and Km is the dissociation constant of the complex.

[4] = biological target: T2, rat thrombin (Rattus norvegicus, UniProt P18292); experiment: Inhibition of rat thrombin-catalyzed hydrolysis of Chromozym TH; type: biochemical; settings: 25 °C, pH 7.4
T2 construct: purchased Sigma

[5] = biological target: T3, trypsin (Bos taurus, UniProt P00760); experiment: Degradation mediated by trypsin (HPLC); type: in vitro ADME; settings: trypsin (119 ng/μL) in Tris-HCl buffer, pH 8.5, 119 μg/ml trypsin, peptide 0.79 mM, 37 °C, read-out: peptide intact after incubation with trypsin
T3 construct: purchased Roche Corp (Indianapolis, USA)
T3 sequence (P00760 24-246): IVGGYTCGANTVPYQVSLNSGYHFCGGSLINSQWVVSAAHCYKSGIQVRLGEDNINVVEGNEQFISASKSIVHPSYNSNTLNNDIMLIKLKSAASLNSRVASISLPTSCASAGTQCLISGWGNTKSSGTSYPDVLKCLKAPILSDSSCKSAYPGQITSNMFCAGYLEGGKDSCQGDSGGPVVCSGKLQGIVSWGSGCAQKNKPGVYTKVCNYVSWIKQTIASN
Excerpt: The degradation of peptides mediated by trypsin can be effectively monitored by HPLC analysis. […] The detector wavelength was set at 214 nm.

[6] = Pharmacokinetics in rats, i.v.; type: in vivo; settings: rat, 1 μmol/kg i.v., n = 5; for AUC(0-t): read-out: AUC(0-t) (converted); for MRT last: read-out: MRT0-t (converted); for Vd: read-out: Vss
Procedure: SD Rats were randomly divided into three groups (n = 5). […] All blood samples were immediately centrifuged at 5000 rpm for 5 min at room temperature, and the plasma obtained was stored at −20 °C before analysis. To the rat plasma (100 μL) was added 10 μL internal standard (80 ~ 100 ng/ml Carbamazepine), followed by mixing with 200 μL methanol with vortexing for 1 min. At this stage, certain amounts of proteins may precipitate out, thus this mixture was centrifuged at 12,000 rpm for 5 min at room temperature to achieve complete separation. The 20 μl supernatant was injected into a HPLC (Symbiosis, Spark, Holland; column: 50 mm × 2.1 mm, 5 μm, Agilent Eclipse Plus) –MS/MS system (ABI 4000 Q-Trap triple quadrupole mass spectrometer) equipped with electrospray ionization (ESI) source in the positive ion mode (Foster City, USA). The HPLC elution gradient was as follows: 0–0.5 min, 5–5% (B); 0.5–3 min, 5–95% (B); 3–4 min, 95–95% (B); 4–4.06 min, 95–5% (B); 4.06–6 min, 5–5% (B); the flow-rate was 0.4 ml/min; A was 0.1% formic acid/Waterl, B was 0.1% formic acid/methanol. The MS parameters were: CUR10Psi; Ion Spray Voltage (IS) 5500v; Collision activated dissociation (CAD) High, Gas1 = 50 psi, Gas2 = 50 psi, TEM = 500 °C.
All three peptides remained stable in plasma during three freeze/thaw cycles, at room temperature for at least 2 h. The supernatant of plasma samples were also found to be stable for at least 24 h at 10 °C in the autosampler.
The statistical significance of the difference among pharmacokinetic parameters was determined using the mean comparison Student’s t-test, and the resulting P values were lower than 0.05, which is considered to be statistically significant.

[7] = biological target: T1, human thrombin; experiment: Degradation mediated by human thrombin (HPLC); type: in vitro ADME; settings: human thrombin (69 NIH/mL) in Tris-HCl buffer, pH 8, 69 NIH/ml human thrombin, peptide 0.41 mM, 37 °C, read-out: peptide remained after reaction with human thrombin
Procedure: The catalytic cleavage of peptides mediated by thrombin was also examined using the same method. Specifically, a peptide solution (0.41 mM) was first incubated with thrombin (69 NIH/mL) in Tris-HCl buffer (70 mM Tris HCl, NaCl 50 mM, pH = 8.0) at 37 °C.

[8] = Bleeding time test (BT) in rats; type: in vivo, rat; settings: 30 min after administration
Procedure: Bleeding time was determined as reported previously. Male SD rats (180–220 g) were divided into 6 groups (n = 8). […] Thirty minutes after the injection, bleeding was induced by tail transection of the anesthetized rat with a size 21 disposable scalpel blade 2 mm from the tail tip. The bleeding tail was wiped with filter paper every 30 s, and the bleeding time was recorded when no blood was observed on the filter paper.

- cleaved bond [1]: Arg-Pro
- cleaved bond [2]: Arg-Pro
Compound: D-FPRP-GGGG-QGDFEPIPEDAYDE^*

Compound: CCCCCCCCCCCCCCCCCC(=O)NCCCC[C@H](NC(=O)CNC(=O)CNC(=O)CNC(=O)[C@@H]1CCCN1C(=O)[C@H](CCCNC(=N)N)NC(=O)[C@@H]1CCCN1C(=O)[C@H](N)Cc1ccccc1)C(=O)N[C@@H](CCC(N)=O)C(=O)NCC(=O)N[C@@H](CC(=O)O)C(=O)N[C@@H](Cc1ccccc1)C(=O)N[C@@H](CCC(=O)O)C(=O)N1CCC[C@H]1C(=O)N[C@H](C(=O)N1CCC[C@H]1C(=O)N[C@@H](CCC(=O)O)C(=O)N[C@@H](CC(=O)O)C(=O)N[C@@H](C)C(=O)N[C@@H](Cc1ccc(O)cc1)C(=O)N[C@@H](CC(=O)O)C(=O)N[C@@H](CCC(=O)O)C(N)=O)[C@@H](C)CC [Peptide S3] (H-[dF]PRPGGGK(Stearoyl)QGDFEPIPEDAYDE-NH2; N-terminus assumed)
- Ki [3]: 11 ± 0.15 nM
- Ki [4]: 54.5 ± 0.82 nM

Compound: CC[C@H](C)[C@H](NC(=O)[C@@H]1CCCN1C(=O)[C@H](CCC(=O)O)NC(=O)[C@H](Cc1ccccc1)NC(=O)[C@H](CC(=O)O)NC(=O)CNC(=O)[C@H](CCC(N)=O)NC(=O)CNC(=O)CNC(=O)CNC(=O)CNC(=O)[C@@H]1CCCN1C(=O)[C@H](CCCNC(=N)N)NC(=O)[C@@H]1CCCN1C(=O)[C@H](N)Cc1ccccc1)C(=O)N1CCC[C@H]1C(=O)N[C@@H](CCC(=O)O)C(=O)N[C@@H](CC(=O)O)C(=O)N[C@@H](C)C(=O)N[C@@H](Cc1ccc(O)cc1)C(=O)N[C@@H](CC(=O)O)C(=O)N[C@@H](CCC(=O)O)C(N)=O [Peptide 1] (H-[dF]PRPGGGGQGDFEPIPEDAYDE-NH2)
- remaining at 3 h, 0.79 mM [5]: 5%
- remaining at 5 h, 0.79 mM [5]: 1%
- AUC(0-inf) ([6]; SD, plasma, iv, 1 umol/kg): 0.432 µM·h
- AUC(0-t) ([6]; SD, plasma, iv, 1 umol/kg): 0.428 µM·h
- Cmax ([6]; in vivo, iv, 1 umol/kg): 2300 ± 400 nM
- clearance ([6]; in vivo, iv, 1 umol/kg): 36.4 ± 3.6 mL/min/kg
- MRT last ([6]; in vivo, iv, 1 umol/kg): 13.9 min
- Vd ([6]; in vivo, iv, 1 umol/kg): 0.504 ± 0.0217 L/kg
- T1/2 [6]: 13.5 ± 2.6 min
- half-life ([6]; in vivo, iv, 1 umol/kg): < 16 min
- remaining at 3 h, 0.41 mM [7]: 70%
- remaining at 5 h, 0.41 mM [7]: 46%
- Ki [4]: 13.4 ± 0.46 nM

Compound: heparin [reference compound]
- bleeding time (BT) ([8]; 200 IU/kg): 401 ± 83.23 s

Compound: CCCCCCCCCCCCCCCCCC(=O)NCCCC[C@H](NC(=O)[C@@H]1CCCN1C(=O)[C@H](CCCNC(=N)N)NC(=O)[C@@H]1CCCN1C(=O)[C@H](N)Cc1ccccc1)C(=O)NCC(=O)NCC(=O)NCC(=O)N[C@@H](CCC(N)=O)C(=O)NCC(=O)N[C@@H](CC(=O)O)C(=O)N[C@@H](Cc1ccccc1)C(=O)N[C@@H](CCC(=O)O)C(=O)N1CCC[C@H]1C(=O)N[C@H](C(=O)N1CCC[C@H]1C(=O)N[C@@H](CCC(=O)O)C(=O)N[C@@H](CC(=O)O)C(=O)N[C@@H](C)C(=O)N[C@@H](Cc1ccc(O)cc1)C(=O)N[C@@H](CC(=O)O)C(=O)N[C@@H](CCC(=O)O)C(N)=O)[C@@H](C)CC [Peptide S1] (H-[dF]PRPK(Stearoyl)GGGQGDFEPIPEDAYDE-NH2; N-terminus assumed)
- Ki [3]: 19.5 ± 0.4 nM
- Ki [4]: 37.4 ± 1.16 nM

Compound: CC[C@H](C)[C@H](NC(=O)[C@H](CCC(=O)O)NC(=O)[C@H](CCC(=O)O)NC(=O)[C@H](Cc1ccccc1)NC(=O)[C@H](CC(=O)O)NC(=O)CNC(=O)[C@H](CC(N)=O)NC(=O)CNC(=O)CNC(=O)CNC(=O)CNC(=O)[C@@H]1CCCN1C(=O)[C@H](CCCNC(=N)N)NC(=O)[C@@H]1CCCN1C(=O)[C@H](N)Cc1ccccc1)C(=O)N1CCC[C@H]1C(=O)N[C@@H](CCC(=O)O)C(=O)N[C@@H](CCC(=O)O)C(=O)N[C@@H](Cc1ccc(O)cc1)C(=O)N[C@@H](CC(C)C)C(=O)O [Hirulog-1, reference compound]
- remaining at 3 h, 0.79 mM [5]: 10%
- remaining at 5 h, 0.79 mM [5]: 6%
- bleeding time (BT) ([8]; 8 mg/kg): 525.00 ± 48.11 s
- AUC(0-inf) ([6]; SD, plasma, iv, 1 umol/kg): 0.415 µM·h
- Cmax ([6]; SD, plasma, iv, 1 umol/kg): 3100 ± 1100 nM
- clearance ([6]; SD, plasma, iv, 1 umol/kg): 42.6 ± 5.2 mL/min/kg
- AUC(0-t) ([6]; SD, plasma, iv, 1 umol/kg): 0.395 µM·h
- MRT last ([6]; SD, plasma, iv, 1 umol/kg): 12.1 min
- Vd ([6]; SD, plasma, iv, 1 umol/kg): 0.522 ± 0.151 L/kg
- remaining at 3 h, 0.41 mM [7]: 57%
- remaining at 5 h, 0.41 mM [7]: 23%
- Ki [4]: 20.5 ± 0.62 nM

- cleaved bond [1]: Arg-Pro
- cleaved bond [2]: Arg-Pro
Compound: D-FPRP-GGGG-QGDFEEIPEEYL

- cleaved bond [1]: Arg-Pro
- cleaved bond [2]: Arg-Pro
Compound: D-FPRP-GK(stearic acid)GG-QGDFEPIPEDAYDE^* ([dF]PRPGK(Stearoyl)GGQGDFEPIPEDAYDE-NH2)
